Tested on: 186277-243-T-J2-PDC complex spheroid viability
Test: Anticancer human tumor 186277-243-T-J2-PDC patient-derived colon adenocarcinoma cell line growth inhibition
Conditions: for IC50: curve of first compound; for viability, T/C: stronger effect = lower value
Outline: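 Complex spheroids of tumor cells with HUVEC and human MSCs, exposed to iadademstat combined with other agents. Each agent tested in half-log steps from near clinical Cmax (else 10 microM top), DMSO ≤0.25%.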

[1] = second compound 0.1 µM, first compound 0.00949 µM
[2] = second compound 0.1 µM, first compound 0.03 µM
[3] = second compound 0.1 µM, first compound 0.0949 µM
[4] = second compound 0.1 µM, first compound 0.3 µM
[5] = second compound 0.316 µM, first compound 0.00949 µM
[6] = second compound 0.316 µM, first compound 0.03 µM
[7] = second compound 0.316 µM, first compound 0.0949 µM
[8] = second compound 0.316 µM, first compound 0.3 µM
[9] = second compound 1 µM, first compound 0.00949 µM
[10] = second compound 1 µM, first compound 0.03 µM
[11] = second compound 1 µM, first compound 0.0949 µM
[12] = second compound 1 µM, first compound 0.3 µM
[13] = second compound 3.16 µM, first compound 0.00949 µM
[14] = second compound 3.16 µM, first compound 0.03 µM
[15] = second compound 3.16 µM, first compound 0.0949 µM
[16] = second compound 3.16 µM, first compound 0.3 µM
[17] = second compound 10 µM, first compound 0.00949 µM
[18] = second compound 10 µM, first compound 0.03 µM
[19] = second compound 10 µM, first compound 0.0949 µM
[20] = second compound 10 µM, first compound 0.3 µM
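Note: 7 day exposure to compounds.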
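Throughout, for viability, T/C: 100% = DMSO vehicle control viability.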

Work on `CCc1c2c(nc3ccc(O)cc13)-c1cc3c(c(=O)n1C2)COC(=O)[C@]3(O)CC` + NC1CC1c1ccc(-c2cccc(O)c2)cc1 yielded an IC50 (second compound 0.1 µM) of less than 0.000949 µM, an IC50 (second compound 0.316 µM) of less than 0.000949 µM and an IC50 (second compound 1 µM) of less than 0.000949 µM. For the same compound, the IC50 (second compound 3.16 µM) was less than 0.000949 µM, the IC50 (second compound 10 µM) was less than 0.000949 µM and the viability, T/C (second compound 0.1 µM, first compound 0.000949 µM) was 41.8%. For the same compound, the viability, T/C (second compound 0.1 µM, first compound 0.003 µM) was 30.3%, the viability, T/C [1] was 21.5% and the viability, T/C [2] was 3.91%. For the same compound, the viability, T/C [3] was 1.18%, the viability, T/C [4] was 0.24% and the viability, T/C (second compound 0.316 µM, first compound 0.000949 µM) was 43.1%. It also gave a viability, T/C (second compound 0.316 µM, first compound 0.003 µM) of 29.9%, a viability, T/C [5] of 22.4% and a viability, T/C [6] of 3.45%. The viability, T/C [7] was 0.15%, the viability, T/C [8] was 0.17% and the viability, T/C (second compound 1 µM, first compound 0.000949 µM) was 42.2%. For the same compound, the viability, T/C (second compound 1 µM, first compound 0.003 µM) was 28.3%, the viability, T/C [9] was 24.3% and the viability, T/C [10] was 3.43%. For the same compound, the viability, T/C [11] was 0.22%, the viability, T/C [12] was 0.17% and the viability, T/C (second compound 3.16 µM, first compound 0.000949 µM) was 42.7%. The viability, T/C (second compound 3.16 µM, first compound 0.003 µM) was 29%, the viability, T/C [13] was 24% and the viability, T/C [14] was 3.34%. For the same compound, the viability, T/C [15] was 0.22%, the viability, T/C [16] was 0.16% and the viability, T/C (second compound 10 µM, first compound 0.000949 µM) was 35.4%. It also gave a viability, T/C (second compound 10 µM, first compound 0.003 µM) of 23.4%, a viability, T/C [17] of 17.3% and a viability, T/C [18] of 1.73%. It also gave a viability, T/C [19] of 0.19% and a viability, T/C [20] of 0.23%.
`Nc1ccccc1NC(=O)c1ccc(CNC(=O)OCc2cccnc2)cc1` + NC1CC1c1ccc(-c2cccc(O)c2)cc1 was tested, and the IC50 (second compound 0.1 µM) was 0.596 µM, the IC50 (second compound 0.316 µM) was 0.57 µM and the IC50 (second compound 1 µM) was 0.585 µM. It also gave an IC50 (second compound 3.16 µM) of 0.563 µM, an IC50 (second compound 10 µM) of 0.514 µM and a viability, T/C [1] of 93.8%. It also gave a viability, T/C [2] of 104%, a viability, T/C [3] of 91.6% and a viability, T/C [4] of 98.6%. The viability, T/C (second compound 0.1 µM, first compound 0.949 µM) was 18.1%, the viability, T/C (second compound 0.1 µM, first compound 3 µM) was 1.51% and the viability, T/C [5] was 99.6%. For the same compound, the viability, T/C [6] was 99.6%, the viability, T/C [7] was 108% and the viability, T/C [8] was 93.5%. The viability, T/C (second compound 0.316 µM, first compound 0.949 µM) was 15.4%, the viability, T/C (second compound 0.316 µM, first compound 3 µM) was 0.84% and the viability, T/C [9] was 98.8%. It also gave a viability, T/C [10] of 94.1%, a viability, T/C [11] of 98.8% and a viability, T/C [12] of 94.7%. For the same compound, the viability, T/C (second compound 1 µM, first compound 0.949 µM) was 17.7%, the viability, T/C (second compound 1 µM, first compound 3 µM) was 0.9% and the viability, T/C [13] was 99.8%. For the same compound, the viability, T/C [14] was 110%, the viability, T/C [15] was 109% and the viability, T/C [16] was 87.9%. For the same compound, the viability, T/C (second compound 3.16 µM, first compound 0.949 µM) was 18.5%, the viability, T/C (second compound 3.16 µM, first compound 3 µM) was 1.44% and the viability, T/C [17] was 96.2%. The viability, T/C [18] was 97.3%, the viability, T/C [19] was 104% and the viability, T/C [20] was 83.3%. The viability, T/C (second compound 10 µM, first compound 0.949 µM) was 11.8% and the viability, T/C (second compound 10 µM, first compound 3 µM) was 1.02%.
With `O=C(c1cc(Cc2n[nH]c(=O)c3ccccc23)ccc1F)N1CCN(C(=O)C2CC2)CC1` + NC1CC1c1ccc(-c2cccc(O)c2)cc1 the IC50 (second compound 0.1 µM) was greater than 10 µM, the IC50 (second compound 0.316 µM) was greater than 10 µM and the IC50 (second compound 1 µM) was greater than 10 µM. For the same compound, the IC50 (second compound 3.16 µM) was greater than 10 µM, the IC50 (second compound 10 µM) was greater than 10 µM and the viability, T/C (second compound 0.1 µM, first compound 0.0316 µM) was 98.8%. It also gave a viability, T/C (second compound 0.1 µM, first compound 0.1 µM) of 89.7%, a viability, T/C (second compound 0.1 µM, first compound 0.316 µM) of 95.4% and a viability, T/C (second compound 0.1 µM, first compound 1 µM) of 103%. The viability, T/C (second compound 0.1 µM, first compound 3.16 µM) was 122%, the viability, T/C (second compound 0.1 µM, first compound 10 µM) was 107% and the viability, T/C (second compound 0.316 µM, first compound 0.0316 µM) was 101%. It also gave a viability, T/C (second compound 0.316 µM, first compound 0.1 µM) of 101%, a viability, T/C (second compound 0.316 µM, first compound 0.316 µM) of 110% and a viability, T/C (second compound 0.316 µM, first compound 1 µM) of 92.6%. For the same compound, the viability, T/C (second compound 0.316 µM, first compound 3.16 µM) was 121%, the viability, T/C (second compound 0.316 µM, first compound 10 µM) was 98.5% and the viability, T/C (second compound 1 µM, first compound 0.0316 µM) was 106%. The viability, T/C (second compound 1 µM, first compound 0.1 µM) was 92.7%, the viability, T/C (second compound 1 µM, first compound 0.316 µM) was 97.4% and the viability, T/C (second compound 1 µM, first compound 1 µM) was 95.1%. The viability, T/C (second compound 1 µM, first compound 3.16 µM) was 120%, the viability, T/C (second compound 1 µM, first compound 10 µM) was 106% and the viability, T/C (second compound 3.16 µM, first compound 0.0316 µM) was 84.6%. It also gave a viability, T/C (second compound 3.16 µM, first compound 0.1 µM) of 101%, a viability, T/C (second compound 3.16 µM, first compound 0.316 µM) of 95.8% and a viability, T/C (second compound 3.16 µM, first compound 1 µM) of 103%. For the same compound, the viability, T/C (second compound 3.16 µM, first compound 3.16 µM) was 115%, the viability, T/C (second compound 3.16 µM, first compound 10 µM) was 108% and the viability, T/C (second compound 10 µM, first compound 0.0316 µM) was 87.9%. The viability, T/C (second compound 10 µM, first compound 0.1 µM) was 92%, the viability, T/C (second compound 10 µM, first compound 0.316 µM) was 93.8% and the viability, T/C (second compound 10 µM, first compound 1 µM) was 85.4%. The viability, T/C (second compound 10 µM, first compound 3.16 µM) was 120% and the viability, T/C (second compound 10 µM, first compound 10 µM) was 98.5%.

Reference: PubChem BioAssay AID1918933 (Molecular Pharmacology Branch, DTP, NCI, 2023)
